Experiment: gradient 5% acetonitrile 3 min, to 50% in 2 min, to 85% in 15 min, held 3 min, 100 µL/min
Details: column: Zorbax Extend-C18 2.1 x 50 mm; eluents: water / acetonitrile, 0.1% formic acid
In short: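 The system's dead and dwell volumes were 40 μL and 900 μL, with a Zorbax Extend-C18 column (2.1 × 50 mm, 1.8 μm) run at 100 μL/min in water and acetonitrile containing 0.1% formic acid each. Pure standards were analyzed in mixtures of ~100 molecules by HPLC–quadrupole time-of-flight mass spectrometry in positive and negative ionization mode. Retention time was assigned from computationally picked, manually inspected adduct peaks.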

Row | RP-LC retention time [s] | SMILES
1 | 649 | Cc1nc(CCNC(=O)NC2CCCCC2)no1
2 | 715 | O=C(CCS(=O)(=O)c1ccccc1)NCCOc1ccc(-c2ccc(F)cc2)nn1
3 | 586 | O=C(NCCCN1CCOCC1)c1ccc2ccnc(N3CCN(c4ccccc4)CC3)c2c1
4 | 1030 | Cc1noc(-c2nc(-c3ccc(N(C)C)cc3)no2)n1
5 | 656 | CCOC(=O)c1noc2ncnc(N(CCN(C)C)Cc3ccccc3)c12
6 | 1020 | CCN(CC)c1nc2cc(C(=O)NCC3CC3)ccc2c(=O)n1Cc1ccccc1
7 | 855 | Cn1cnc2c(C(=O)NC3CCCCC3)nn(-c3ccccc3)c2c1=O
8 | 1290 | Cc1ccc(C)c(CS(=O)(=O)N2CCc3nc(-c4ccc(Cl)cc4)ncc3C2)c1
9 | 951 | CCN(CC)S(=O)(=O)c1c(C)nn(C(=O)c2ccccc2OC)c1C
10 | 807 | Cn1nc(-c2ccccc2)nc1C1CN(C(=O)Nc2ccccc2C(F)(F)F)C1
11 | 788 | CCC(=O)N1CCC(C2CCN(S(=O)(=O)c3ccccc3)CC2)C1 (stereo not given)
12 | 1050 | COc1ccc(Cl)cc1N1CC(c2nc(-c3ccc(C)cc3)no2)CC1=O (stereo not given)
13 | 894 | CC1CCC(C(C)C)C(NC(=O)c2ccncc2)C1 (stereo not given)
14 | 871 | COc1ccc(S(=O)(=O)N2CCC(c3nc(C(=O)N4CCCC4)c(C)o3)CC2)cc1
15 | 748 | CSc1ncccc1C(=O)NCc1cc(-c2ccc3c(c2)OCCO3)on1
16 | 529 | Cc1cc(C(=O)N[C@@H]2CN(c3ncccn3)C[C@H]2CO)ccn1
17 | 549 | COc1ccc(CN2CCC([C@@H]3CNC[C@H]3CO)CC2)c(OC)c1
18 | 1020 | CCc1ccccc1NC(=O)N1CCCC(C)(C(=O)NCc2ccccc2C)C1 (stereo not given)
19 | 863 | Cc1ccc(C)c(S(=O)(=O)Nc2ccc(C(=O)Nc3ccccc3F)cc2)c1
20 | 534 | COCc1ncc(C)n1CC1CCN(Cc2sccc2C)CC1
21 | 733 | O=C(c1cccs1)N1CCC(c2nnc(-c3ccc(F)cc3)o2)CC1
22 | 1080 | O=C(NC1CCCC1)N1CC(Oc2ccc(-c3nc(-c4ccccc4)no3)cc2)C1
23 | 1220 | CCOc1ccc(-c2cc3c(=O)n(Cc4nc(-c5cccc(OCC)c5)no4)ncn3n2)cc1

Row | RP-LC retention time [s] | SMILES
24 | 660 | CC1CCN(c2nc(C(=O)NCc3ccccn3)nc3c2cnn3C)CC1
25 | 622 | Cc1sc2cc(C(=O)O)[nH]c2c1C(=O)N1CCOCC1
26 | 759 | CCOc1cc(C(=O)Nc2c(-c3ccccc3)nc3ccccn23)cc(OCC)c1OCC
27 | 1100 | CC1CCCCN1S(=O)(=O)c1ccc2nc(N3CCN(c4ccc(F)cc4)CC3)ccc2c1 (stereo not given)
28 | 767 | O=C(Nc1ccc2c(c1)CN(C(=O)Cn1c(=O)oc3ccccc31)CCO2)C1CC1
29 | 659 | COCc1nc2cccnc2n1C1CCN(C(=O)Nc2cc(OC)c(OC)c(OC)c2)CC1
30 | 639 | COc1ccc(-c2nc(C)cc(C)c2CNS(=O)(=O)c2ccccc2)cc1
31 | 836 | Cc1cccc(-n2c(=O)c3c(cc(C)n3C)n(CC(=O)Nc3ccccc3F)c2=O)c1
32 | 654 | Cc1noc(C)c1S(=O)(=O)N1CCC(C(C)C(=O)N2CCN(C3CCCCC3)CC2)CC1 (stereo not given)
33 | 692 | CCCCOc1ccc(-c2cc3c4nnc(CCC(=O)N5CCN(C(C)C)CC5)n4ccn3n2)cc1
34 | 917 | O=C(c1nnc(-c2ccc(S(=O)(=O)N3CCOCC3)cc2)o1)N1CCc2ccccc2C1
35 | 599 | O=C(NCc1cccc(Br)c1)c1ccc2c(c1)ncn2CCN1CCCC1
36 | 969 | Cc1nc(CSc2cc(C)c3ccccc3n2)cs1
37 | 774 | COc1ccc2[nH]cc(CCNC(=O)c3c(Cl)cccc3Cl)c2c1
38 | 915 | CCc1noc(-c2ccnc(-n3cnc(C(=O)NC4CCCCC4)c3)c2)n1
39 | 745 | Cc1ccc2c(=O)c(C(=O)c3ccc(Cl)cc3)cn(CC(=O)NCC3CCCO3)c2n1 (stereo not given)
40 | 778 | CCc1ccc(-c2cc3c(=O)n(Cc4noc(CN5CCCCC5CC)n4)ccn3n2)cc1 (stereo not given)
41 | 602 | O=C(Cn1c(=O)c2cccn2c2ccc(F)cc21)NCCCN1CCOCC1
42 | 932 | CCCn1c(=O)sc2cc(S(=O)(=O)N3CCC(C(=O)NCc4ccccc4)CC3)ccc21
43 | 695 | Cc1ccc(C(=O)NCCc2nc3cccnc3n2C(C)C)c(C)c1
44 | 1070 | O=C(O)c1cc(-c2ccc(Cl)s2)nc2ccccc12
45 | 691 | Cc1cc(C)cc(C(=O)N2CCN(c3cc(=O)n(C)c(=O)n3C)CC2)c1
46 | 785 | Cc1nc(C)c(C(=O)NCC23CCCC=C2N(CC2CC2)C(=O)CC3)s1 (stereo not given)

Row | RP-LC retention time [s] | SMILES
47 | 689 | O=C(c1nnc(-c2ccc(S(=O)(=O)N3CCOCC3)cc2)o1)N1CCOCC1
48 | 600 | CN(CC(=O)N1CCN(Cc2ccccc2)CC1)S(=O)(=O)c1ccc2c(c1)CCCC(=O)N2
49 | 602 | CCN(CC)CCCC(C)Nc1ccnc(/C=C/c2ccc(Cl)cc2)c1 (stereo not given)
50 | 594 | Cc1noc([C@@H]2CN(Cc3cc(Cl)ccc3F)C[C@H]2CO)n1
51 | 838 | CNC(=O)N1CCCC(c2cccc(C(=O)NCc3ccccc3C(F)(F)F)c2)C1 (stereo not given)
52 | 581 | CCCNC(=O)C1Cn2cccc2C(=O)N1 (stereo not given)
53 | 826 | COc1ccc(CCC(=O)N2CCC(C(=O)NCCc3csc(-c4cccs4)n3)CC2)cc1
54 | 969 | CC1CCN(S(=O)(=O)c2nn(C)cc2C(=O)NCc2cc(F)cc(F)c2)CC1
55 | 615 | Cc1cccc(CN2CCC(CNC(=O)C3CCCN(c4nccc(C)n4)C3)CC2)c1 (stereo not given)
56 | 826 | CCOC(=O)c1[nH]c(C)c(CCC(=O)N2CCC(C(=O)NCc3ccc(C)cc3)CC2)c1C
57 | 1110 | Cc1cc2nc(Nc3nc(SCc4ccc(Cl)cc4)cc(=O)[nH]3)nc(C)c2cc1C
58 | 1030 | Cc1ccc(-n2ccc(=O)c(-c3nc(-c4ccc(Cl)cc4)no3)n2)cc1
59 | 780 | CC1CN(C(=O)c2cc3cc([N+](=O)[O-])ccc3s2)CC(C)O1 (stereo not given)
60 | 732 | O=C(Nc1cccc(F)c1)N1CCC(N2CCN(Cc3ccccc3)C(=O)C2=O)CC1
61 | 895 | Cc1ccc(CN2N=C(C(=O)N3CCCC3)S(=O)(=O)c3ccccc32)cc1
62 | 972 | O=C(NCc1cccs1)c1cccn1Cc1noc(-c2ccccc2)n1
63 | 771 | O=C(Nc1cnc(N2CCCCCC2)nc1)c1cnccn1
64 | 1310 | CC(C)(C)c1csc(-c2csc(S(=O)(=O)Nc3ccc(F)c(Cl)c3)c2)n1
65 | 707 | Cc1cccc(NC(=O)Cn2c(-c3cnccn3)nc(C)c(C)c2=O)c1
66 | 724 | CC(C)NC(=O)c1ccc(-c2nnc3ccc(NC(=O)C4CCC4)cn23)cc1
67 | 689 | Cc1noc(C)c1CC(=O)NCc1cc(-c2ccc3c(c2)OCO3)on1
68 | 611 | Cn1nnnc1SCC(=O)NCCn1nc(-c2cccs2)ccc1=O
69 | 784 | COc1ccccc1CCNC(=O)CSC1CCc2ccccc2NC1=O (stereo not given)

Row | RP-LC retention time [s] | SMILES
70 | 677 | COCC(=O)N1CCCN(C2=NS(=O)(=O)C(c3ccc(F)cc3)=C2C)CC1
71 | 759 | CCOC(=O)c1ccc(NS(=O)(=O)c2cc3n(c2)CCCN(CC)C3=O)cc1
72 | 882 | O=C(CN1C(=O)C2CCCCN2c2ccc(S(=O)(=O)N3CCCC3)cc21)NCc1cccs1 (stereo not given)
73 | 652 | CC(=O)NCc1csc(C2CCN(C(=O)c3cc(F)ccc3F)CC2)n1
74 | 676 | COc1ccc(-c2nc3cnccn3c2NCCC(=O)Nc2ccc3c(c2)OCCO3)cc1
75 | 974 | Cc1cc(C)c(S(=O)(=O)N2CCCC(C(=O)Nc3ccc4c(c3)OCO4)C2)c(C)c1 (stereo not given)
76 | 936 | Cc1cc(C)cc(N2CCC(NC(=O)Nc3ccccc3Cl)C2=O)c1 (stereo not given)
77 | 683 | CCn1cnc2ccc(-c3noc(-c4ccoc4)n3)cc21
78 | 671 | CC(C)NC(=O)c1nc(-c2ccnc(N3CCCCC3)c2)no1
79 | 645 | c1ccc(-c2n[nH]c(-c3ccccn3)n2)nc1
80 | 647 | CSc1nsc(NN)n1
81 | 856 | Cn1c(=O)c2cc(C(=O)Nc3ccc4c(c3)OCCO4)cnc2n(-c2ccc(F)cc2)c1=O
82 | 956 | CCOc1ccc(-c2noc(Cn3c(=O)n(CCCOC)c(=O)c4ccccc43)n2)cc1OC
83 | 572 | O=C(c1ccc(Cl)s1)N1CCN(CC(O)c2cccs2)CC1 (stereo not given)
84 | 927 | O=C([C@@H]1C[C@H](F)CN1S(=O)(=O)c1cccc(Cl)c1)N1CCc2ccccc2C1
85 | 805 | O=C([C@@H]1C[C@H](F)CN1S(=O)(=O)c1cccc(F)c1)N1CCCCC1
86 | 663 | COc1ccccc1CC(=O)Nc1cnc(-c2cccnc2)nc1
87 | 762 | O=C(c1ccc2c(c1)OCO2)N1CCCC2(C1)NC(=O)N(Cc1ccccc1)C2=O (stereo not given)
88 | 681 | COc1ccc(CNc2nc3ccncc3n(C(C)C)c2=O)c(OC)c1
89 | 624 | O=C(O)c1cc(Nc2ccc(F)cc2)c2cccc(Cl)c2n1

Row | SMILES | RP-LC retention time [s]
90 | Fc1cccc(F)c1C1SCc2nc3ccccc3n21 (stereo not given) | 797
